Reference: ChEMBL document CHEMBL2069186, “Getting the MAX out of Computational Models: The Prediction of Unbound-Brain and Unbound-Plasma Maximum Concentrations” (ACS Med Chem Lett, 2012)

Assays:
Brain = test: Dose normalized fCmax in C57BL/6J mouse brain at 10 mg/kg, po; format: ADME, organism-based; design: dose 10 mg/kg, route oral; details: in vivo
Plasma = test: Dose normalized fCmax in C57BL/6J mouse plasma at 10 mg/kg, po; format: ADME, organism-based; design: dose 10 mg/kg, route oral; details: in vivo

Structure (SMILES): Nc1ncnc2c1c(COc1cccc(Cl)c1)nn2C1CCOCC1
- fCmax/dose (Brain): 88 nM
- fCmax/dose (Plasma): 180 nM
